Results on six compounds are retold here after patent US9512315B2, “Quenching dye for labeling biomolecules and method for preparing the same” (DKC CORPORATION, priority 2013, dated 2016).

Format in all cases: physicochemical
Data set [1] in a line: Solubility in water (stock solution preparation). Here is the method: (§1) In order to investigate the absorption intensity and spectrum of the anthraquinone compound according to the present disclosure, the absorption spectra of the compounds of Example 1 and Example 6 and commercially available BHQ-3 as a comparative example were compared. Stock solutions were prepared by dissolving the compounds of Example 1 and Example 6 according to the present disclosure in distilled water. BHQ-3 was dissolved in a small amount of DMSO according to the manufacturer's instructions and diluted with distilled water.

A short description of data set [2]: Test Example 1: comparison of absorption spectra. The note with it: for negative absorption: FIG. 1, range of 750-800 nm. Here is the method: (§2) LC/MS was measured by ESI (electrospray ionization) using the LC/MSD SL of Agilent Technologies. The absorption spectrum and maximum absorption wavelength (λabs) of the synthesized dye were measured with Lambda 45 of PerkinElmer. The emission spectrum and maximum emission wavelength (λfl) were measured with LS-55 of PerkinElmer.
as §1

Data set [3] can be described thus: Maximum absorption wavelength (λabs) of the synthesized dye in PBS. Here is the method: as §2

Several values for one entry are separate records, joined by “and”; a condition that tells them apart may be missing. Equal values may be shown once.

As to `CCN(CC)c1ccc2nc3ccc(/N=N/c4ccc(N(C)CCCC(=O)O)cc4)cc3[n+](-c3ccccc3)c2c1` [BHQ-3, reference compound], the solubility in water entry in data set [1] is listed as “not dissolved in water”. In addition, the negative absorption result in data set [2] is reported as “negative (−) absorption”. The “range of absorption spectra, normalized to the maximum absorption intensity” value in data set [2] (FIG. 2) is on record as 300-750 nm.

`CN(CCCCCC(=O)O)c1ccc(/N=N/c2ccc(Nc3cc(S(=O)(=O)O)c(N)c4c3C(=O)c3ccccc3C4=O)c(S(=O)(=O)O)c2)cc1` [Example 1]: the “λabs (maximum absorption wavelength)” value in data set [3] was 481 nm and 626 nm. In data set [2], the negative absorption result is “did not show negative absorption”.

In the case of `C=CS(=O)(=O)CCNC(=O)CCCCCN(C)c1ccc(/N=N/c2ccc(Nc3cc(S(=O)(=O)O)c(N)c4c3C(=O)c3ccccc3C4=O)c(S(=O)(=O)O)c2)cc1` [Example 3], the “λabs (maximum absorption wavelength)” value in data set [3] was 481 nm and 626 nm.

Consider `CN(CCCCCCCC(=O)O)c1ccc(/N=N/c2ccc(Nc3cc(S(=O)(=O)O)c(N)c4c3C(=O)c3ccccc3C4=O)c(S(=O)(=O)O)c2)cc1` [Example 5], for which the “λabs (maximum absorption wavelength)” value in data set [3] is 472 nm and 624 nm.

As for `CN(CCCCCCCC(=O)ON1C(=O)CCC1=O)c1ccc(/N=N/c2ccc(Nc3cc(S(=O)(=O)O)c(N)c4c3C(=O)c3ccccc3C4=O)c(S(=O)(=O)O)c2)cc1` [Example 6], in data set [2], the negative absorption result is “did not show negative absorption”.

Consider `C=CS(=O)(=O)CCNC(=O)CCCCCCCN(C)c1ccc(/N=N/c2ccc(Nc3cc(S(=O)(=O)O)c(N)c4c3C(=O)c3ccccc3C4=O)c(S(=O)(=O)O)c2)cc1` [Example 7], for which the “λabs (maximum absorption wavelength)” value in data set [3] is 472 nm and 624 nm.
